Source: patent US20120059036A1, “METHOD FOR REDUCING THROMBOCYTOPENIA AND THROMBOCYTOPENIA-ASSOCIATED MORTALITY” (priority 2008, published 2012)

Key:
[1] = test system: patients experiencing ST-segment elevation myocardial infarction (STEMI); test: […] primary end point: at least 50% resolution of ST-segment elevation on 12-lead electrocardiogram 90 minutes after PCI; type: in vivo, human; settings: for percentage of patients achieving at least 50% ST-segment resolution / patients achieving at least 50% ST-segment resolution: intention-to-treat analysis, within 90 minutes following PCI; for patients achieving at least 50% ST-segment resolution: out of 361 patients
Method: (§1) The inclusion criteria were (1) chest pain for longer than 30 minutes with an electrocardiographic ST-segment elevation of 1 mm or greater in two or more contiguous electrocardiogram leads, or with a new left bundle-branch block, and (2) admission either within 12 hours of symptom onset or between 12 and 24 hours after onset with evidence of continuing ischemia. The exclusion criteria included administration of fibrinolytics in the previous 30 days, major surgery within 15 days, and active bleeding or previous stroke in the last six months. Immediately after eligibility criteria were met and before the visualization of coronary arteries through angiography, the treating physician at each investigational site performed open-label assignments of study treatments via sealed envelopes.
(§2) This type of regimen is described in U.S. Pat. No. 6,770,660. Abciximab was administered in a 0.25 mg/kg bolus, followed by 0.125 μg/kg/min continuous infusion for 12 hours. The administration of both drugs began at first medical contact, before arterial sheath insertion. Heparin was given at 40 to 70 U/kg, targeting an activated clotting time of at least 200 seconds. Patients received aspirin (160-325 mg orally or 250 mg intravenously, followed by 80-125 mg/d orally indefinitely) and clopidogrel (300 mg orally and then 75 mg/d for at least three months).
(§3) A 12-lead electrocardiogram was recorded before the procedure and 90 minutes after the last balloon inflation in the infarct-related artery. Follow-up visits were scheduled at one, four, and eight months.
Changes in the ST-segment of the electrocardiogram were evaluated cumulatively before and 90 minutes after intervention. ST-segment elevation was measured to the nearest 0.5 mm at 60 milliseconds after the J point by a single experienced cardiologist who was blinded to treatment assignments. […] Quantitative angiographic analyses were performed with a validated edge-detection system (CAAS II; Pie Medical, Maastricht, the Netherlands), and coronary flow was classified according to Thrombolysis in Myocardial Infarction (TIMI) criteria. Angiographic analyses and TIMI grading were performed by one independent cardiologist who was blinded to treatment assignments.
This was based on both intention-to-treat and per-protocol principles and was applied to an exploratory analysis across several prespecified subgroups. The Cochran-Mantel-Haenszel χ^2 test was performed to evaluate possible imbalances of the relative risk among different recruiting centers.

[2] = test system: patients experiencing ST-segment elevation myocardial infarction (STEMI); test: MULTISTRATEGY safety analysis: bleeding, transfusion, thrombocytopenia and thrombocytopenia-associated mortality; settings: for Major bleeding / Minor bleedng / Moderate thrombocytoperia (<100000 cells/mm^3) / Red blood cells transfusion ≧1 Units / Red blood cells transfusion ≧2 Units / Severe thrombocytoperia (<50000 cells/mm^3): At 30 d, safety analysis
Method: as §1, §2
(§4) The data for all patients with primary end-point events were reviewed by an independent adjudication committee whose members were blinded to treatment assignments. Events adjudication was performed separately by two members, and in case of disagreement, the opinion of the third member was obtained and the final decision taken by consensus. The committee was also responsible for the adjudication of all clinical events according to the Academic Research Consortium.^18
(§5) Discrete data were summarized as frequencies, and comparisons were made with the likelihood-ratio χ^2 test or Fisher exact test. Continuous data were expressed as mean (SD) or median and interquartile range according to their distribution; comparisons were made with a one-way analysis of variance or the Kruskal-Wallis test.

[3] = test system: patients experiencing ST-segment elevation myocardial infarction (STEMI); test: […] Phase III study: clinical outcomes (death, reinfarction, revascularization, stent thrombosis) at 30 days and 8 months; type: in vivo, human; settings: for probability of death/MI: within eight months after treatment, intent-to-treat population
Method: as §1, §2, §3, §4, §5

[4] = At 8 mo, number of patients with event
[5] = At 30 d, number of patients with event

In the case of “Abciximab: inhibitor of the glycoprotein (GP) IIb/IIIa receptor complex; comparator drug”, the “percentage of patients achieving at least 50% ST-segment resolution” value [1] is reported as 83.6%, the “patients achieving at least 50% ST-segment resolution” value [1] is reported as 302 patients and the Major bleeding [2] is reported as “(1.6) %”. The Minor bleedng [2] was “(6.2) %”, the “Moderate thrombocytoperia (<100000 cells/mm^3)” value [2] was “(1.6) %” and the “Red blood cells transfusion ≧1 Units” value [2] was “(2.2) %”. The “Red blood cells transfusion ≧2 Units” value [2] was “(2.2) %”, the “Severe thrombocytoperia (<50000 cells/mm^3)” value [2] was “(2.4) %” and the Major bleeding ([2]; number of patients) was 6 No. The Minor bleedng ([2]; number of patients) was 23 No, the “Moderate thrombocytoperia (<100000 cells/mm^3)” value ([2]; number of patients) was 6 No and the “Red blood cells transfusion ≧1 Units” value ([2]; number of patients) was 8 No. The “Red blood cells transfusion ≧2 Units” value ([2]; number of patients) was 8 No, the “Severe thrombocytoperia (<50000 cells/mm^3)” value ([2]; number of patients) was 9 No and the “TIMI major and minor bleeding” value ([2]; At 30 days) was 7.8%. For the same molecule, the “incidence of severe or moderate thrombocytopenia” value ([2]; At 30 days) was 4.0%, the “mortality rates of nonthrombocytopenic patients” value ([2]; HDB tirofiban compared with abciximab, follow-up, FIG. 3) was “virtually identical” and the “patients with drug-induced thrombocytopenia who died” value ([2]; within eight months, FIG. 3) was 20%. For the same molecule, the “Clinically driven target-vessel revascularization” value ([3]; At 8 mo, Kaplan-Meier estimate) was “(7.3) %”, the “Composite of death, reinfarction, or target-vessel revascularization” value (from here on “Composite of death, reinfarction”) ([3]; At 8 mo, Kaplan-Meier estimate) was “(12.4) %” and the Death ([3]; At 8 mo, Kaplan-Meier estimate) was “(4.0) %”. The Death or reinfarction ([3]; At 8 mo, Kaplan-Meier estimate) was “(7.5) %”, the “Definite or probable or possible stent thrombosis” value ([3]; At 8 mo, Kaplan-Meier estimate) was “(4.3) %” and the “Definite or probable stent thrombosis” value ([3]; At 8 mo, Kaplan-Meier estimate) was “(3.5) %”. For the same molecule, the Definite stent thrombosis ([3]; At 8 mo, Kaplan-Meier estimate) was “(2.7) %”, the Possible stent thrombosis ([3]; At 8 mo, Kaplan-Meier estimate) was “(1.1) %” and the Reinfarction ([3]; At 8 mo, Kaplan-Meier estimate) was “(3.5) %”. For the same molecule, the “Clinically driven target-vessel revascularization” value [3, 4] was 27 No, the “Composite of death, reinfarction” value [3, 4] was 46 No and the Death [3, 4] was 15 No. The Death or reinfarction [3, 4] was 28 No, the “Definite or probable or possible stent thrombosis” value [3, 4] was 16 No and the “Definite or probable stent thrombosis” value [3, 4] was 13 No. It also gave a Definite stent thrombosis [3, 4] of 10 No, a Possible stent thrombosis [3, 4] of 4 No and a Reinfarction [3, 4] of 13 No. The “Clinically driven target-vessel revascularization” value ([3]; At 30 d, Kaplan-Meier estimate) was “(1.6) %”, the “Composite of death, reinfarction” value ([3]; At 30 d, Kaplan-Meier estimate) was “(4.3) %” and the Death ([3]; At 30 d, Kaplan-Meier estimate) was “(2.4) %”. For the same molecule, the Death or reinfarction ([3]; At 30 d, Kaplan-Meier estimate) was “(3.8) %”, the “Definite or probable stent thrombosis” value ([3]; At 30 d, Kaplan-Meier estimate) was “(2.2) %” and the Definite stent thrombosis ([3]; At 30 d, Kaplan-Meier estimate) was “(1.3) %”. For the same molecule, the Probable stent thrombosis ([3]; At 30 d, Kaplan-Meier estimate) was “(0.8) %”, the Reinfarction ([3]; At 30 d, Kaplan-Meier estimate) was “(1.3) %” and the “Clinically driven target-vessel revascularization” value [3, 5] was 6 No. The “Composite of death, reinfarction” value [3, 5] was 16 No, the Death [3, 5] was 9 No and the Death or reinfarction [3, 5] was 14 No. For the same molecule, the “Definite or probable stent thrombosis” value [3, 5] was 8 No, the Definite stent thrombosis [3, 5] was 5 No and the Probable stent thrombosis [3, 5] was 3 No. For the same molecule, the Reinfarction [3, 5] was 5 No, the “incidence of MACE” value ([3]; At 30 days) was 4.37% and the “incidence of MACE” value ([3]; At eight months) was 12.4%. For the same molecule, the “probability of death/MI” value [3] was 7.5%.
In the case of `CCCCS(=O)(=O)N[C@@H](Cc1ccc(OCCCCC2CCNCC2)cc1)C(=O)O.Cl` [Tirofiban, N-(butylsulfonyl)-O-[4-(4-piperidinyl)butyl]-tyrosine monohydrochloride], the “recovery from ST-segment elevation after coronary intervention in comparison with abciximab” value ([1]; consistent across recruiting centers and prespecified subgroups) is reported as “noninferior”, the “percentage of patients achieving at least 50% ST-segment resolution” value [1] is reported as 85.3% and the “patients achieving at least 50% ST-segment resolution” value [1] is reported as 308 patients. The “Clinically driven target-vessel revascularization” value ([3]; At 8 mo, Kaplan-Meier estimate) was “(6.2) %”, the “Composite of death, reinfarction” value ([3]; At 8 mo, Kaplan-Meier estimate) was “(9.9) %” and the Death ([3]; At 8 mo, Kaplan-Meier estimate) was “(3.0) %”. The Death or reinfarction ([3]; At 8 mo, Kaplan-Meier estimate) was “(5.9) %”, the “Definite or probable or possible stent thrombosis” value ([3]; At 8 mo, Kaplan-Meier estimate) was “(3.8) %” and the “Definite or probable stent thrombosis” value ([3]; At 8 mo, Kaplan-Meier estimate) was “(3.2) %”. For the same molecule, the Definite stent thrombosis ([3]; At 8 mo, Kaplan-Meier estimate) was “(2.7) %”, the Possible stent thrombosis ([3]; At 8 mo, Kaplan-Meier estimate) was “(0.8) %” and the Reinfarction ([3]; At 8 mo, Kaplan-Meier estimate) was “(4.3) %”. The “Clinically driven target-vessel revascularization” value [3, 4] was 23 No, the “Composite of death, reinfarction” value [3, 4] was 37 No and the Death [3, 4] was 11 No. For the same molecule, the Death or reinfarction [3, 4] was 22 No, the “Definite or probable or possible stent thrombosis” value [3, 4] was 14 No and the “Definite or probable stent thrombosis” value [3, 4] was 12 No. For the same molecule, the Definite stent thrombosis [3, 4] was 10 No, the Possible stent thrombosis [3, 4] was 3 No and the Reinfarction [3, 4] was 16 No. The “Clinically driven target-vessel revascularization” value ([3]; At 30 d, Kaplan-Meier estimate) was “(2.2) %”, the “Composite of death, reinfarction” value ([3]; At 30 d, Kaplan-Meier estimate) was “(4.0) %” and the Death ([3]; At 30 d, Kaplan-Meier estimate) was “(1.1) %”. The Death or reinfarction ([3]; At 30 d, Kaplan-Meier estimate) was “(3.8) %”, the “Definite or probable stent thrombosis” value ([3]; At 30 d, Kaplan-Meier estimate) was “(2.4) %” and the Definite stent thrombosis ([3]; At 30 d, Kaplan-Meier estimate) was “(1.9) %”. For the same molecule, the Probable stent thrombosis ([3]; At 30 d, Kaplan-Meier estimate) was “(0.5) %”, the Reinfarction ([3]; At 30 d, Kaplan-Meier estimate) was “(2.7) %” and the “Clinically driven target-vessel revascularization” value [3, 5] was 8 No. For the same molecule, the “Composite of death, reinfarction” value [3, 5] was 15 No, the Death [3, 5] was 4 No and the Death or reinfarction [3, 5] was 14 No. The “Definite or probable stent thrombosis” value [3, 5] was 9 No, the Definite stent thrombosis [3, 5] was 7 No and the Probable stent thrombosis [3, 5] was 2 No. For the same molecule, the Reinfarction [3, 5] was 10 No, the “incidence of MACE” value ([3]; At 30 days) was 4.0% and the “incidence of MACE” value ([3]; At eight months) was 9.9%. For the same molecule, the “probability of death/MI” value [3] was 5.9%.
